These results are taken from PubChem BioAssay (NCI).

Where “and” joins values, the source holds several entries; their conditions need not be identical. Equal values may be shown once.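 Five concentrations, 48 hours, 96-well plates. GI50: concentration for 50% inhibition of growth. Definition used: TGI = concentration required for complete inhibition of growth.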

Test systems include ACHN renal; HT29 colon; NCI-H23 lung; UACC-62 melanoma; SW-620 colon; OVCAR-3 ovarian; HOP-62 NSCLC; U251 CNS.
Holding throughout (assay): inhibition of tumour cell growth, NCI panel, 48 h

Consider `O=C(O)C(Cc1cnc[nH]1)N1C(=O)c2ccccc2C1=O` (stereo not given), for which the TGI in the test with ACHN renal, with HT29 colon, in the test on NCI-H23 lung, with UACC-62 melanoma, in the test with SW-620 colon and in the test on OVCAR-3 ovarian was greater than 100 µM throughout. Also, the TGI with HOP-62 NSCLC and in the test with U251 CNS was greater than 100 µM throughout.

Consider `CSC(=S)Nc1cc(C)cc(C)n1`, for which the TGI with ACHN renal, in the test on HT29 colon, with NCI-H23 lung, with UACC-62 melanoma, in the test with SW-620 colon and in the test with OVCAR-3 ovarian was greater than 31.6 µM throughout. For the same compound, the TGI was greater than 100 µM in the test on HOP-62 NSCLC and greater than 31.6 µM in the test with U251 CNS.

For `O=S(=O)(NC1CCCCC1)c1ccc2c(c1)OCCOCCOCCOCCO2`, the TGI with ACHN renal, with HT29 colon, with NCI-H23 lung, in the test on UACC-62 melanoma, in the test on SW-620 colon and with HOP-62 NSCLC was greater than 100 µM in each case.

On to `CCC1(O)CC(OC2CC(N(C)C)C(OC3CC(O)C(OC4OC(C)C(=O)C=C4N)C(C)O3)C(C)O2)c2c(cc3c(c2O)C(=O)c2c(O)cccc2C3=O)C1C(=O)OC` (stereo not given), for which the TGI in the test on ACHN renal is 0.312 µM and 0.895 µM; in the test on HT29 colon it was 0.431 µM and 1.24 µM; in the test with NCI-H23 lung, 2.95 µM; in the test on UACC-62 melanoma, 0.17 µM and 0.0324 µM; in the test with SW-620 colon it was 1.76 µM and 1.2 µM; with OVCAR-3 ovarian, 1.18 µM and 0.624 µM. For the same compound, the TGI in the test on HOP-62 NSCLC is 1.14 µM and 0.344 µM; in the test with U251 CNS, 1.5 µM and 1.55 µM. In the test with NCI-H23 lung, the GI50 was 0.0144 µM.

As for `CNC(=O)NCC1OC(n2cnc3c(NC(=O)Nc4ccccc4)ncnc32)C(O[Si](C)(C)C(C)(C)C)C1O[Si](C)(C)C(C)(C)C` (stereo not given), the GI50 in the test on ACHN renal was 3.83 µM; with HT29 colon it was 2.02 µM; with NCI-H23 lung it was 3.17 µM; in the test on UACC-62 melanoma it was 3.98 µM; with OVCAR-3 ovarian, 2.6 µM; in the test with HOP-62 NSCLC, 4.98 µM. The GI50 in the test on U251 CNS is 2.96 µM. Moreover, the TGI with ACHN renal was greater than 100 µM; with HT29 colon, 3.74 µM; in the test on NCI-H23 lung, 9.07 µM; in the test on UACC-62 melanoma, 23.6 µM; with OVCAR-3 ovarian, 5.54 µM; with HOP-62 NSCLC, 17.1 µM. In addition, the TGI with U251 CNS was determined as 10.8 µM.

For the compound `O=C1c2cc(Cc3ccccc3)c(=O)c(Cc3ccccc3)cc2C(=O)c2cc(Cc3ccccc3)c(=O)c(Cc3ccccc3)cc21`, the TGI in the test on ACHN renal, in the test on HT29 colon, in the test on NCI-H23 lung, with SW-620 colon, with OVCAR-3 ovarian and with HOP-62 NSCLC was greater than 100 µM each time. The same compound returned a TGI in the test on U251 CNS greater than 100 µM.

Take `COc1cc2c(cc1OC)-c1ncc3c(OC)ccc(OC)c3c1C2`: the GI50 is 24 µM with ACHN renal; 18 µM with UACC-62 melanoma; 35.1 µM in the test with SW-620 colon; 15.4 µM with OVCAR-3 ovarian; 21.4 µM in the test on HOP-62 NSCLC; 14.6 µM in the test on U251 CNS. Also, the TGI in the test with ACHN renal is greater than 100 µM; with UACC-62 melanoma, greater than 100 µM; in the test with SW-620 colon it was greater than 100 µM; with OVCAR-3 ovarian it was 46.8 µM; in the test with HOP-62 NSCLC it was 61.3 µM; with U251 CNS, 56.4 µM.

Regarding `O=C(Oc1cccc(Cl)c1)c1ccccc1Nc1ccnc(C(F)(F)F)c1`, the GI50 is 2.41 µM in the test with NCI-H23 lung; 2.02 µM in the test with UACC-62 melanoma; 4.33 µM with SW-620 colon; 3.8 µM with OVCAR-3 ovarian; 24.9 µM in the test with HOP-62 NSCLC. The TGI in the test with NCI-H23 lung stood at 8.26 µM; with UACC-62 melanoma, 6.71 µM; in the test with SW-620 colon, 23.3 µM; in the test on OVCAR-3 ovarian it was 18.1 µM; with HOP-62 NSCLC it was 44.7 µM.

In the case of `COc1ccccc1/C=C1\COc2ccc(-c3ccccc3)cc2C1=O`, the GI50 in the test on ACHN renal was 3.86 µM; with NCI-H23 lung it was 4.38 µM; in the test with UACC-62 melanoma, 4.39 µM; in the test on SW-620 colon it was 2.39 µM; with OVCAR-3 ovarian, 2.58 µM; in the test with HOP-62 NSCLC, 7.6 µM. In addition, the GI50 with U251 CNS is 2.12 µM. Moreover, the TGI is 26 µM in the test with ACHN renal; 59.3 µM with NCI-H23 lung; 45.2 µM in the test with UACC-62 melanoma; 5.6 µM with SW-620 colon; 5.48 µM in the test on OVCAR-3 ovarian; greater than 100 µM in the test on HOP-62 NSCLC. Moreover, the TGI with U251 CNS was 6.24 µM.

As for `COC(=O)c1c2c(c(C)[n+]([O-])c1C)C(=O)C=C(NCc1ccccc1)C2=O`, the GI50 was 0.384 µM in the test on HT29 colon; 0.632 µM in the test on NCI-H23 lung; 0.286 µM in the test on UACC-62 melanoma; 0.375 µM in the test on SW-620 colon; 0.277 µM with OVCAR-3 ovarian; 1.49 µM in the test on HOP-62 NSCLC. Moreover, in the test with U251 CNS, the GI50 was 1.33 µM. Besides, the TGI in the test on HT29 colon turned out to be 2.78 µM; with NCI-H23 lung, 2.46 µM; with UACC-62 melanoma, 1.21 µM; with SW-620 colon it was 1.54 µM; in the test with OVCAR-3 ovarian it was 0.791 µM; in the test on HOP-62 NSCLC, 3.19 µM. This compound showed a TGI in the test on U251 CNS of 3.02 µM.

As for `CCCCC(SC(=S)N1CCCC1)C(=O)Nc1nc(CC(=O)OCC)cs1` (stereo not given), the GI50 in the test on ACHN renal is 59.3 µM; in the test on HT29 colon, 21.8 µM; in the test on UACC-62 melanoma, 76.4 µM; in the test on SW-620 colon, 68.6 µM; in the test with OVCAR-3 ovarian, 9.52 µM; in the test on HOP-62 NSCLC it was greater than 100 µM. For the same compound, the GI50 in the test on U251 CNS was 53.8 µM. Besides, the TGI in the test on ACHN renal, in the test with HT29 colon, with UACC-62 melanoma, with SW-620 colon, in the test with OVCAR-3 ovarian and in the test on HOP-62 NSCLC was greater than 100 µM in each case. Moreover, the TGI in the test on U251 CNS was greater than 100 µM.

Take `COc1ccc2c(c1)/C(=C\c1ccncc1)C(=O)N2`: the GI50 is 4.41 µM with ACHN renal; 12.3 µM in the test with NCI-H23 lung; 4.46 µM in the test with UACC-62 melanoma; 10.4 µM in the test on SW-620 colon; 10.4 µM in the test on OVCAR-3 ovarian; 21.8 µM in the test with HOP-62 NSCLC. Besides, the GI50 in the test on U251 CNS was 4.32 µM. In addition, the TGI with ACHN renal came to 15.9 µM; in the test on NCI-H23 lung, 43.5 µM; in the test on UACC-62 melanoma, 17.2 µM; in the test on SW-620 colon it was 43.8 µM; in the test with OVCAR-3 ovarian, 27.5 µM; in the test with HOP-62 NSCLC, 41 µM. This compound displayed a TGI in the test on U251 CNS of 23.1 µM.
